Experimental data reported in PubChem BioAssay (NCI).
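GI50 = concentration required for 50% inhibition of growth. TGI denotes the concentration required for complete inhibition of growth.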

Columns and labels:
Experiment in all cases: NCI tumour cell line growth inhibition, 384-well format
[1] = tested on: PC-3 prostate
[2] = tested on: SK-MEL-28 melanoma
[3] = tested on: SNB-19 CNS
[4] = tested on: UACC-62 melanoma
[5] = tested on: SF-539 CNS
[6] = tested on: KM12 colon
[7] = tested on: TK-10 renal
[8] = tested on: MDA-MB-231 breast
[9] = tested on: MOLT-4 leukemia
[10] = tested on: COLO 205 colon
[11] = tested on: HL-60(TB) leukemia
[12] = tested on: CAKI-1 renal
[13] = tested on: HT29 colon
[14] = tested on: OVCAR-8 ovarian
[15] = tested on: HS 578T breast
[16] = tested on: SK-OV-3 ovarian
[17] = tested on: OVCAR-5 ovarian
[18] = tested on: U251 glioblastoma
[19] = tested on: A549 NSCLC
[20] = tested on: A498 renal
[21] = tested on: SF-268 CNS
[22] = tested on: SR leukemia
[23] = tested on: M14 melanoma
[24] = tested on: BT-549 breast
[25] = tested on: MCF7 breast
[26] = tested on: OVCAR-4 ovarian
[27] = tested on: SNB-75 CNS
[28] = tested on: 786-0 renal
[29] = tested on: MDA-MB-468 breast
[30] = tested on: EKVX NSCLC
[31] = tested on: IGROV1 ovarian
[32] = tested on: MDA-MB-435 melanoma
[33] = tested on: T-47D breast
[34] = tested on: RXF 393 renal
[35] = tested on: SK-MEL-5 melanoma
[36] = tested on: HCT-15 colon
[37] = tested on: NCI-H226 lung
[38] = tested on: NCI/ADR-RES ovarian
[39] = tested on: NCI-H522 lung
[40] = tested on: NCI-H460 NSCLC
[41] = tested on: HOP-92 NSCLC
[42] = tested on: UACC-257 melanoma
[43] = tested on: SF-295 CNS
[44] = tested on: NCI-H322M lung
[45] = tested on: HCC-2998 colon
[46] = tested on: HOP-62 NSCLC
[47] = tested on: CCRF-CEM leukemia
[48] = tested on: RPMI-8226 leukemia
[49] = tested on: ACHN renal
[50] = tested on: DU-145 prostate
[51] = tested on: SW-620 colon
[52] = tested on: NCI-H23 lung
[53] = tested on: SN12C renal
[54] = tested on: MALME-3M melanoma
[55] = tested on: OVCAR-3 ovarian

In the case of `Nc1nc(N)c(N=O)c(OCC2CCCCC2)n1`, the GI50 [1] is reported as 7.78 µM, the TGI [1] is reported as 49.4 µM and the GI50 [2] is reported as 22.3 µM. The TGI [2] was 97.1 µM, the GI50 [3] was 31.1 µM and the TGI [3] was greater than 100 µM. For the same compound, the GI50 [4] was 14.5 µM, the TGI [4] was 38.7 µM and the GI50 [5] was 18.5 µM. It also gave a TGI [5] of 67.1 µM, a GI50 [6] of 21.4 µM and a TGI [6] greater than 100 µM. It also gave a GI50 [7] of 7.67 µM, a TGI [7] of 30 µM and a GI50 [8] of 10.9 µM. The TGI [8] was 66 µM, the GI50 [9] was 5.83 µM and the TGI [9] was 17.9 µM. The GI50 [10] was 23.6 µM, the TGI [10] was 56 µM and the GI50 [11] was 15 µM. For the same compound, the TGI [11] was 32.8 µM, the GI50 [12] was 8.55 µM and the TGI [12] was 31.6 µM. It also gave a GI50 [13] of 19.3 µM, a TGI [13] of 90.6 µM and a GI50 [14] of 32.9 µM. It also gave a TGI [14] greater than 100 µM, a GI50 [15] of 4.02 µM and a TGI [15] of 16.2 µM. The GI50 [16] was 15 µM, the TGI [16] was 37.6 µM and the GI50 [17] was 17.2 µM. It also gave a TGI [17] of 82.2 µM, a GI50 [18] of 17.2 µM and a TGI [18] of 58.8 µM. For the same compound, the GI50 [19] was 17.6 µM, the TGI [19] was 64.1 µM and the GI50 [20] was 5.34 µM. For the same compound, the TGI [20] was 25.3 µM, the GI50 [21] was 21.2 µM and the TGI [21] was 78.7 µM. The GI50 [22] was 3.46 µM, the TGI [22] was 8.82 µM and the GI50 [23] was 11.4 µM. The TGI [23] was 79 µM, the GI50 [24] was 5.63 µM and the TGI [24] was 26.1 µM. For the same compound, the GI50 [25] was 5.22 µM, the TGI [25] was 91.6 µM and the GI50 [26] was 19.2 µM. The TGI [26] was 49.3 µM, the GI50 [27] was 4.38 µM and the TGI [27] was 19.7 µM. For the same compound, the GI50 [28] was 23.9 µM, the TGI [28] was greater than 100 µM and the GI50 [29] was 3.29 µM. For the same compound, the TGI [29] was 10.8 µM, the GI50 [30] was 22.3 µM and the TGI [30] was 70.3 µM. It also gave a GI50 [31] of 4.21 µM, a TGI [31] of 18.1 µM and a GI50 [32] of 25.4 µM. It also gave a TGI [32] greater than 100 µM, a GI50 [33] of 6.41 µM and a TGI [33] of 33.1 µM. The GI50 [34] was 5.32 µM, the TGI [34] was 27.1 µM and the GI50 [35] was 17.1 µM. It also gave a TGI [35] of 46.5 µM, a GI50 [36] of 5.06 µM and a TGI [36] greater than 100 µM. For the same compound, the GI50 [37] was 10.9 µM, the TGI [37] was 54.1 µM and the GI50 [38] was 30.6 µM. For the same compound, the TGI [38] was greater than 100 µM, the GI50 [39] was 5.92 µM and the TGI [39] was 25.1 µM. For the same compound, the GI50 [40] was 4.94 µM, the TGI [40] was 26.7 µM and the GI50 [41] was 9.41 µM. It also gave a TGI [41] of 36.9 µM, a GI50 [42] of 23.6 µM and a TGI [42] greater than 100 µM. It also gave a GI50 [43] of 26 µM, a TGI [43] of 87 µM and a GI50 [44] of 24.6 µM. The TGI [44] was greater than 100 µM, the GI50 [45] was 15.1 µM and the TGI [45] was greater than 100 µM. For the same compound, the GI50 [46] was 4.57 µM, the TGI [46] was 24.7 µM and the GI50 [47] was 4.9 µM. The TGI [47] was 17 µM, the GI50 [48] was 4.88 µM and the TGI [48] was 13.9 µM. The GI50 [49] was 27.3 µM, the TGI [49] was 85.9 µM and the GI50 [50] was 13.2 µM. For the same compound, the TGI [50] was greater than 100 µM, the GI50 [51] was 45.9 µM and the TGI [51] was greater than 100 µM. The GI50 [52] was 15.6 µM, the TGI [52] was 46.6 µM and the GI50 [53] was 13.6 µM. It also gave a TGI [53] of 57.1 µM, a GI50 [54] of 8.62 µM and a TGI [54] of 41.9 µM. For the same compound, the GI50 [55] was 17.1 µM and the TGI [55] was greater than 100 µM.
